Results: patent publication US20250144054A1, “SMALL MOLECULE STAT3 INHIBITOR FOR TREATING TRIPLE NEGATIVE BREAST CANCER” (UNIVERSITY OF MARYLAND, BALTIMORE, priority 2022, published 2025)

Tests used:
STAT3 [1] = test: IL-6 induced STAT3 phosphorylation, Western blot, T47D cells; type: cell-based, human; settings: pretreated 2 hours serum-free, 50 ng/ml IL-6 30 minutes
Description: (§1) (A) The chemical structures of LLL12B and LLL12. The carbamate ester bond of LLL12B is hydrolytically cleaved by the tumor-associated plasmin to release LLL12. (B) SUM159 cells were seeded in a 6-well plate and treated with LLL12B for 8 hours. Cells were stained with Phospho-Stat3 (Tyr705) and DAPI (indicated by arrows). Green: P-STAT3 (Y705); Blue: DAPI. T47D (C) and MDA-MB-231 (D) breast cancer cells were pretreated with DMSO or LLL12B in a serum-free medium for 2 hours and stimulated with 50 ng/ml of IL-6, IFN-γ, or EGF for additional 30 minutes. Cells were collected and analyzed by Western blot. GAPDH served as a protein loading control.
(§2) Western blot. Cells were collected and total protein was extracted using cell lysis buffer (Cell Signaling Technology, Danvers, MA, USA). Protein concentration was determined using the Pierce BCA Protein Assay Kit (Thermo Fisher Scientific, Waltham, MA, USA) according to the manufacturer's instructions. Equal amounts of protein were separated by 10% SDS-PAGE gels and transferred to PVDF membranes. Membranes were blocked in 5% non-fat milk at room temperature and probed with specific antibodies P-STAT3 (Y705), STAT3, Cyclin D1, Cleaved Caspase-3, P-STAT1 (Y701), STAT1, P-ERK, ERK or GAPDH (1:1000, Cell Signaling Technology, Danvers, MA, USA) at 4° C. overnight. […]

STAT3 [2] = test: IL-6 induced STAT3 phosphorylation, Western blot, MDA-MB-231 cells; type: cell-based, human; settings: pretreated 2 hours serum-free, 50 ng/ml IL-6 30 minutes
Description: as §1, §2

ERK = test: EGF induced ERK phosphorylation, Western blot, MDA-MB-231 cells; type: cell-based, human; settings: pretreated 2 hours, 50 ng/ml EGF 30 minutes
Description: as §1, §2

STAT3 [3] = test: Western blot of P-STAT3 (Y705), STAT3, Cyclin D1, Cleaved Caspase-3 in SUM159 cells; type: cell-based, human; settings: SUM159, overnight, vs DMSO
Description: (A) MDA-MB-231, SUM159, and 4T1 cell lines were treated with DMSO or LLL12B overnight and the expression levels of P-STAT3 (Y705), STAT3, Cyclin D1, and Cleaved Caspase-3 were analyzed by Western blot. GAPDH served as a protein loading control. (B) MDA-MB-231 cells were treated with DMSO or C188-9 overnight and the expression levels of P-STAT3 (Y705), STAT3, Cyclin D1, and Cleaved Caspase-3 were analyzed by Western blot. (C) MDA-MB-231, SUM159, and 4T1 cells were seeded in a 96-well plate and treated with DMSO or LLL12B for 5 hours and a Caspase-3/7 Fluorescence Assay Kit was used to detect the activation of caspase-3/7. (D) MDA-MB-231, SUM159, and 4T1 cell lines were treated with DMSO or LLL12B for 8-12 hours, and flow cytometry was performed to analyze annexin V and PI staining. The quantification of apoptotic cells was shown in the right panel. ** P<0.01, *** P<0.001 and ****P<0.0001.
SiRNA and transfection. STAT3 siRNA and Negative Control siRNA (Cell Signaling Technology, Danvers, MA, USA) were used to knock down STAT3 in MDA-MB-231, SUM159, and 4T1 cell lines. Cells were transfected with STAT3 siRNA or Negative Control siRNA using Lipofectamine RNAiMAX (Invitrogen, Carlsbad, CA, USA) according to the manufacturer's instructions. After 72 hours, cell viability was examined by MTT cell viability assay, and the transfection efficiency was examined by western blot.
as §2

caspase-3/7 [4] = test: Caspase-3/7 activity assay, MDA-MB-231 cells; type: cell-based, human; settings: MDA-MB-231, 5 hours, vs DMSO
Description: (§3) Caspase-3/7 activity assay. The Caspase-3/7 Fluorescence Assay Kit (Cayman, Ann Arbor, MI, USA) was used to detect the activation of caspase-3/7 and the assay was performed according to the manufacturer's instructions. Briefly, MDA-MB-231, SUM159, and 4T1 cells were seeded in a 96-well plate in triplicate. After overnight incubation, cells were treated with either LLL12B or DMSO for 5 hours. Cells were lysed and processed to measure caspase-3/7 activity and the fluorescence intensity was read (excitation=485 nm; emission=535 nm).

caspase-3/7 [5] = test: Caspase-3/7 activity assay, SUM159 cells; type: cell-based, human; settings: SUM159, 5 hours, vs DMSO
Description: as §3

SUM159 cells [6] = test: Annexin V and PI flow cytometry, SUM159 cells; type: cell-based, human; settings: SUM159, 8-12 hours, vs DMSO
Description: (§4) Flow cytometry analysis. Flow cytometry was performed to detect cell apoptosis. The APC Annexin V Apoptosis Detection Kit (Biolegend, San Diego, CA, USA) was used for Annexin V staining. Cells were seeded in a 35 mm culture dish at a density of 1×10^5 cells/dish. After overnight incubation, cells were treated with DMSO or LLL12B for 8-12 hours. Cells were harvested and stained with Annexin V-APC and propidium iodide (PI) according to the manufacturer's instructions. After staining, cells were counted using a FACSCanto II flow cytometer (BD Biosciences, San Jose, CA, USA).

4T1 cells = test: Annexin V and PI flow cytometry, 4T1 cells; type: cell-based, murine; settings: 4T1, 8-12 hours, vs DMSO
Description: as §4

SUM159 cells [7] = test: Colony formation assay, SUM159 cells; type: cell-based, human; settings: SUM159, 24 hours treatment, 7 days drug-free, vs DMSO
Description: Colony formation assay. MDA-MB-231, SUM159, and 4T1 cells were seeded in a 6-well plate at a density of 1000 cells/well and treated with DMSO or LLL12B for 24 hours, and then cultured in a drug-free culture medium for 7 days. Colonies were fixed with methanol for 30 min and stained with 1% crystal violet in 25% methanol for 2 hours at room temperature.

PANC-1 cells = test: MTT cell viability assay, PANC-1 cells; type: cell-based, human; settings: PANC-1, 3 days
Description: The human pancreatic cancer cell lines HPAC and PANC-1 were seeded and allowed to attach for 24 hours. Then cells were treated with different concentrations of LLL12B for 3 days and the cell viability was determined by MTT cell viability assay.

STAT3 [8] = molecular target: STAT3 (Homo sapiens, UniProt P40763); settings: refs [25,27,28]; cited from earlier work
Chain of STAT3 (Homo sapiens, UniProt P40763) (P40763 whole entry, species assumed): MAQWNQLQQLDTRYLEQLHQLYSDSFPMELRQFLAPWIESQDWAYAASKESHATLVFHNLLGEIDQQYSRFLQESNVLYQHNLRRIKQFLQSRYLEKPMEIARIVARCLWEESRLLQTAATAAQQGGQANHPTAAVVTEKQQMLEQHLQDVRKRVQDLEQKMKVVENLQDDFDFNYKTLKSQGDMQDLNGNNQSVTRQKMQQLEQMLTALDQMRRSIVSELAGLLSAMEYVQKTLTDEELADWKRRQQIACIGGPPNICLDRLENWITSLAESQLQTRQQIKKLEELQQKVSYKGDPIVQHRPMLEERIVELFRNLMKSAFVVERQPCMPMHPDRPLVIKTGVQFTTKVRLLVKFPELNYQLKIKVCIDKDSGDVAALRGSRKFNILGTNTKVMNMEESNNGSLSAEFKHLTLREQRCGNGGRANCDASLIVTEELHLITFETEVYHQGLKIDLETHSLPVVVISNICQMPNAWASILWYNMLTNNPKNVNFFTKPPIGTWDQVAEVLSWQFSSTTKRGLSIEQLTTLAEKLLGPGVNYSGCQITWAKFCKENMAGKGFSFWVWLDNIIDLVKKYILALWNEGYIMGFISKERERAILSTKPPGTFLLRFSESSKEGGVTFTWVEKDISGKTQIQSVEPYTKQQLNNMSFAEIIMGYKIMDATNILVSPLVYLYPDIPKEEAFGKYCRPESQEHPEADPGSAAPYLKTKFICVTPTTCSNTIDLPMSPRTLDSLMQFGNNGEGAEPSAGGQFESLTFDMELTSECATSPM

CN(C)C(=O)Oc1cccc2c1C(=O)c1cccc(S(N)(=O)=O)c1C2=O [LLL12B]
IL-6 induced phosphorylation of STAT3 (Y705) (STAT3 [1]): inhibited | IL-6 induced phosphorylation of STAT3 (Y705) (STAT3 [2]): inhibited | inhibition of P-ERK stimulated by EGF (ERK): little effect | Cyclin D1 expression (STAT3 [3]): decreased | expression of Cleaved Caspase-3 (STAT3 [3]): enhanced | phosphorylation of STAT3 (STAT3 [3]): decreased | activation of caspase-3/7 (caspase-3/7 [4]): induced the activation | activation of caspase-3/7 (caspase-3/7 [5]): induced the activation | percentage of apoptotic cells (SUM159 cells [6]): significantly increased | percentage of apoptotic cells (4T1 cells): significantly increased | colony numbers (SUM159 cells [7]): significant reduction | cell viability (PANC-1 cells): significantly inhibits | binding to the pTyr705 binding site of STAT3 (STAT3 [8]): binds directly
